Data as given in patent US8623869B2, “Compounds useful as inhibitors of ATR kinase” (Vertex Pharmaceuticals Incorporated, priority 2010, dated 2014).

Each compound was assayed against T1, full-length ATR (Homo sapiens, UniProt Q13535) (assay: ATR Inhibition Assay (radioactive-phosphate incorporation)). Details: Ki(app); 5 nM full-length ATR, 10 μM ATP, 800 μM target peptide, 25° C.
T1 construct: Assays were carried out at 25° C. in the presence of 5 nM full-length ATR
T1 sequence (Q13535 whole entry): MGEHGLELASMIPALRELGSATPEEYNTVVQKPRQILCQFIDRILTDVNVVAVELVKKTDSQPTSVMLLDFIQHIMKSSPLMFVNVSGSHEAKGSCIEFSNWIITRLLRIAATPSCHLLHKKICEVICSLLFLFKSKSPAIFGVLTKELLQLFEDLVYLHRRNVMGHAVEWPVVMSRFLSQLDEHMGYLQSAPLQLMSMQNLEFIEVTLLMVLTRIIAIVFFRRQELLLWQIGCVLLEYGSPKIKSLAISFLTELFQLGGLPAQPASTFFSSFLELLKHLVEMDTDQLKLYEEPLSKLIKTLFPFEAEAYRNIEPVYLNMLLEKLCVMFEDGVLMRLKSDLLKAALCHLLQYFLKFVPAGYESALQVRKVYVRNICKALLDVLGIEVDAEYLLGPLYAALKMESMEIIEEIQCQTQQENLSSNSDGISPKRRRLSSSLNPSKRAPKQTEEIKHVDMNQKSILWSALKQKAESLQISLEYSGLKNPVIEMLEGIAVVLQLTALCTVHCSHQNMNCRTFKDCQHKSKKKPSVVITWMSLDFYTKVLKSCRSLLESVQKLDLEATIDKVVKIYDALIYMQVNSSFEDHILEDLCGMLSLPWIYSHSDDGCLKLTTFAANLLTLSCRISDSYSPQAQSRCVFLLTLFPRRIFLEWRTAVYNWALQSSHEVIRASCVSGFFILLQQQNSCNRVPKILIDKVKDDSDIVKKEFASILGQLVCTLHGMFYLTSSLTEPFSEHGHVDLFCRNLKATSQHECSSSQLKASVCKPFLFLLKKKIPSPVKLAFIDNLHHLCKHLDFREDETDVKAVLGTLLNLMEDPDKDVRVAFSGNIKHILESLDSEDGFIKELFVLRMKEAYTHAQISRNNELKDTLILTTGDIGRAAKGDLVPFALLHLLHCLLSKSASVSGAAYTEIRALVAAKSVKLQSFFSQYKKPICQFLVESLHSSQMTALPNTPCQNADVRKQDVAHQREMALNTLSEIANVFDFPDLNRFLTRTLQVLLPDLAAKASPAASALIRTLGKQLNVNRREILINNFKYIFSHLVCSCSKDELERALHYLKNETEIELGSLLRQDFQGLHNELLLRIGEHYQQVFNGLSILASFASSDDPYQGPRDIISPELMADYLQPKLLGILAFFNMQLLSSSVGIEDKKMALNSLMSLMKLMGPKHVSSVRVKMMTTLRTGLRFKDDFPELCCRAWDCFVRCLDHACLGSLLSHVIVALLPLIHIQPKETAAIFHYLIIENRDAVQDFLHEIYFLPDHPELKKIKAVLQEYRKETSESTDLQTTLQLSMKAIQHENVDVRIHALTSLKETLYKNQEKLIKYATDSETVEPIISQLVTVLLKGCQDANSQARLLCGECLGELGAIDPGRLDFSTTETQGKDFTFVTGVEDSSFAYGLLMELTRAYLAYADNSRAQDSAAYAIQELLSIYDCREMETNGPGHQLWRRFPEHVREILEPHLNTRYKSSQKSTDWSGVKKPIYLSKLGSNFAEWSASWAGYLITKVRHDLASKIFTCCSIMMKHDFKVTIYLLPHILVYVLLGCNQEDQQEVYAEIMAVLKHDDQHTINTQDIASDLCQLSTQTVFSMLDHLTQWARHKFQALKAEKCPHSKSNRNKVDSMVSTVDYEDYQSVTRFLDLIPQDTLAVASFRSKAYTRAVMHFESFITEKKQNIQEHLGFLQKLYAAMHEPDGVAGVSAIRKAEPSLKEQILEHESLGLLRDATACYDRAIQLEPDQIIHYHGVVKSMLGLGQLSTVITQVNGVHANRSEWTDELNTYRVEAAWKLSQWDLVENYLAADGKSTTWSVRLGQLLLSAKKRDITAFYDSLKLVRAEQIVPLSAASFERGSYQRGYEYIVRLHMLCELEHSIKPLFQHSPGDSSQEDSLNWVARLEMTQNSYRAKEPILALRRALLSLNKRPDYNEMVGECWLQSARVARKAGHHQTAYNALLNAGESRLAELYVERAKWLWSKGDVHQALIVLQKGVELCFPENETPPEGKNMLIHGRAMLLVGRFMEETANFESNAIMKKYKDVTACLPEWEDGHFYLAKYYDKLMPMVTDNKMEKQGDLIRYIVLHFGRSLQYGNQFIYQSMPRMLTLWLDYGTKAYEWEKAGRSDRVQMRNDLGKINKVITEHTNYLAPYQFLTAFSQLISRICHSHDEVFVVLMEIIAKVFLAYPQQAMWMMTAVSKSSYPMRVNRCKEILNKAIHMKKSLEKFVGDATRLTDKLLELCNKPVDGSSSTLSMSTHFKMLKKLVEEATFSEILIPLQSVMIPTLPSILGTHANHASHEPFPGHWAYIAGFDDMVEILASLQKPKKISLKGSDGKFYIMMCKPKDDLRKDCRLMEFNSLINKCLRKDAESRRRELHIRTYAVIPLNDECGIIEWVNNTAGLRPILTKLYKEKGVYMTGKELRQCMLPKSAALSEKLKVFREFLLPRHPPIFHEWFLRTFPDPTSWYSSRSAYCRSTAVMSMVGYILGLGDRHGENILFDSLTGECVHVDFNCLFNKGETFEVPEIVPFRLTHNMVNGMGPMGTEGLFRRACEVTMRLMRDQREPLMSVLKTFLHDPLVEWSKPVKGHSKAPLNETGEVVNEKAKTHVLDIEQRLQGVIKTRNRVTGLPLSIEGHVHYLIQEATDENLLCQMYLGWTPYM
Format: biochemical
Procedure: Compounds were screened for their ability to inhibit ATR kinase using a radioactive-phosphate incorporation assay. Assays were carried out in a mixture of 50 mM Tris/HCl (pH 7.5), 10 mM MgCl2 and 1 mM DTT. Final substrate concentrations were 10 μM [γ-33P]ATP (3mCi 33P ATP/mmol ATP, Perkin Elmer) and 800 μM target peptide (ASELPASQPQPFSAKKK).
Assays were carried out at 25° C. in the presence of 5 nM full-length ATR. An assay stock buffer solution was prepared containing all of the reagents listed above, with the exception of ATP and the test compound of interest. 13.5 μL of the stock solution was placed in a 96 well plate followed by addition of 2 μL of DMSO stock containing serial dilutions of the test compound (typically starting from a final concentration of 15 μM with 3-fold serial dilutions) in duplicate (final DMSO concentration 7%). The plate was pre-incubated for 10 minutes at 25° C. and the reaction initiated by addition of 15 μL [γ-33P]ATP (final concentration 10 μM).
The reaction was stopped after […] by the addition of 30 μL 0.1M phosphoric acid containing 2 mM ATP. A multiscreen phosphocellulose filter 96-well plate (Millipore, Cat no. MAPHN0B50) was pretreated with 100 μL 0.2M phosphoric acid prior to the addition of 45 μL of the stopped assay mixture. The plate was washed with 5×200 μL 0.2M phosphoric acid. After drying, 100 μL Optiphase ‘SuperMix’ liquid scintillation cocktail (Perkin Elmer) was added to the well prior to scintillation counting (1450 Microbeta Liquid Scintillation Counter, Wallac).
After removing mean background values for all of the data points, Ki(app) data were calculated from non-linear regression analysis of the initial rate data using the Prism software package (GraphPad Prism version 3.0cx for Macintosh, GraphPad Software, San Diego Calif., USA).
In the case of `CC(C)S(=O)(=O)c1ccc(-c2cnc3[nH]cc(-c4cn[nH]c4)c3n2)cc1` [Compound I-47, 2-(4-(isopropylsulfonyl)phenyl)-7-(1H-pyrazol-4-yl)-5H-pyrrolo[2,3-b]pyrazine], the Ki is reported as 0.01 to 0.05 µM. For `COc1ncc(-c2c[nH]c3ncc(-c4ccc(S(=O)(=O)C(C)C)cc4)nc23)c(OC)n1` [Compound I-46, 7-(2,4-dimethoxypyrimidin-5-yl)-2-(4-isopropylsulfonylphenyl)-5H-pyrrolo[2,3-b]pyrazine], the Ki was > 0.05 µM. `CC(C)S(=O)(=O)c1ccc(-c2cnc3[nH]cc(-c4cccnc4NC(=O)C(C)(C)C)c3n2)cc1` [Compound I-60, N-[3-[2-(4-isopropylsulfonylphenyl)-5H-pyrrolo[2,3-b]pyrazin-7-yl]-2-pyridyl]2,2-dimethyl-propanamide] was tested, and the Ki was > 0.05 µM. With `CC(C)S(=O)(=O)c1ccc(-c2cnc3[nH]cc(-c4cn(S(=O)(=O)c5ccccc5)c5ccccc45)c3n2)cc1` [Compound I-59, 7-[1-(benzenesulfonyl)indol-3-yl]-2-(4-isopropylsulfonylphenyl)-5H-pyrrolo[2,3-b]pyrazine] the Ki was > 0.05 µM. With `COc1ccccc1-c1c[nH]c2ncc(-c3ccc(S(=O)(=O)C(C)C)cc3)nc12` [Compound I-15, 2-(4-isopropylsulfonylphenyl)-7-(2-methoxyphenyl)-5H-pyrrolo[2,3-b]pyrazine] the Ki was > 0.05 µM. Compound `COc1ncc(-c2c[nH]c3ncc(-c4ccc(S(=O)(=O)C(C)C)cc4)nc23)cn1` [Compound I-34, 2-(4-isopropylsulfonylphenyl)-7-(2-methoxypyrimidin-5-yl)-5H-pyrrolo[2,3-b]pyrazine] has a Ki of 0.01 to 0.05 µM. For `Cc1ccc(-c2c[nH]c3ncc(-c4ccc(S(=O)(=O)C(C)C)cc4)nc23)s1` [Compound I-26, 2-(4-isopropylsulfonylphenyl)-7-(5-methyl-2-thienyl)-5H-pyrrolo[2,3-b]pyrazine], the Ki was 0.01 to 0.05 µM. In the case of `CC(C)S(=O)(=O)c1ccc(-c2cnc3[nH]cc(-c4ccccc4C#N)c3n2)cc1` [Compound I-8, 2-[2-(4-isopropylsulfonylphenyl)-5H-pyrrolo[2,3-b]pyrazin-7-yl]benzonitrile], the Ki is reported as > 0.05 µM. `CC(C)S(=O)(=O)c1ccc(-c2cnc3[nH]cc(-c4cc(O[C@H](C)c5ccccc5Cl)c(C(=O)O)s4)c3n2)cc1` [Compound I-70, 3-[(1R)-1-(2-chlorophenyl)ethoxy]-5-[2-(4-isopropylsulfonylphenyl)-5H-pyrrolo[2,3-b]pyrazin-7-yl]thiophene-2-carboxylic acid] was tested, and the Ki was ≤ 0.01 µM. Compound `CC(C)S(=O)(=O)c1ccc(-c2cnc3[nH]cc(-c4ccn(C)n4)c3n2)cc1` [Compound I-49, 2-(4-isopropylsulfonylphenyl)-7-(1-methylpyrazol-3-yl)-5H-pyrrolo[2,3-b]pyrazine] has a Ki of 0.01 to 0.05 µM. For `CC(C)S(=O)(=O)c1ccc(-c2cnc3[nH]cc(-c4cnc(N)cn4)c3n2)cc1` [Compound I-9, 5-[2-(4-isopropylsulfonylphenyl)-5H-pyrrolo[2,3-b]pyrazin-7-yl]pyrazin-2-amine], the Ki was > 0.05 µM. `CC(C)S(=O)(=O)c1ccc(-c2cnc3[nH]cc(-c4ccc(C(=O)O)s4)c3n2)cc1` [Compound I-62, 5-[2-(4-isopropylsulfonylphenyl)-5H-pyrrolo[2,3-b]pyrazin-7-yl]thiophene-2-carboxylic acid] was tested, and the Ki was ≤ 0.01 µM. Compound `CC(C)S(=O)(=O)c1ccc(-c2cnc3[nH]cc(-c4ccsc4)c3n2)cc1` [Compound I-22, 2-(4-isopropylsulfonylphenyl)-7-(3-thienyl)-5H-pyrrolo[2,3-b]pyrazine] has a Ki of 0.01 to 0.05 µM. For `CC(C)S(=O)(=O)c1ccc(-c2cnc3[nH]cc(-c4ccc(-c5nnn[nH]5)cc4)c3n2)cc1` [Compound I-67, 2-(4-isopropylsulfonylphenyl)-7-[4-(1H-tetrazol-5-yl)phenyl]-5H-pyrrolo[2,3-b]pyrazine], the Ki was > 0.05 µM. For `CC(C)S(=O)(=O)c1ccc(-c2cnc3[nH]cc(-c4ccccc4CO)c3n2)cc1` [Compound I-16, [2-[2-(4-isopropylsulfonylphenyl)-5H-pyrrolo[2,3-b]pyrazin-7-yl]phenyl]methanol], the Ki was > 0.05 µM. For `Cc1cscc1-c1c[nH]c2ncc(-c3ccc(S(=O)(=O)C(C)C)cc3)nc12` [Compound I-27, 2-(4-isopropylsulfonylphenyl)-7-(4-methyl-3-thienyl)-5H-pyrrolo[2,3-b]pyrazine], the Ki was > 0.05 µM. In the case of `CC(C)S(=O)(=O)c1ccc(-c2cnc3[nH]cc(-c4csc(C(=O)O)c4)c3n2)cc1` [Compound I-64, 4-[2-(4-isopropylsulfonylphenyl)-5H-pyrrolo[2,3-b]pyrazin-7-yl]thiophene-2-carboxylic acid], the Ki is reported as ≤ 0.01 µM. For `CC(C)S(=O)(=O)c1ccc(-c2cnc3[nH]cc(-c4ccc(OCCCN(C)C)nc4)c3n2)cc1` [Compound I-11, 3[[5-[2-(4-isopropylsulfonylphenyl)-5H-pyrrolo[2,3-b]pyrazin-7-yl]-2-pyridyl]oxy]-N,N-dimethyl-propan-1-amine], the Ki was > 0.05 µM. With `CC(C)S(=O)(=O)c1ccc(-c2cnc3[nH]cc(-c4ccccc4C(=O)N(C)C)c3n2)cc1` [Compound I-19, 2-[2-(4-isopropylsulfonylphenyl)-5H-pyrrolo[2,3-b]pyrazin-7-yl]-N,N-dimethyl-benzamide] the Ki was > 0.05 µM. Work on `CC(C)S(=O)(=O)c1ccc(-c2cnc3[nH]cc(C#Cc4ccccc4)c3n2)cc1` [Compound I-2, 2-(4-Isopropylsulfonylphenyl)-7-(2-phenylethynyl)-5H-pyrrolo[2,3-b]pyrazine] yielded a Ki of 0.01 to 0.05 µM. With `CC(C)S(=O)(=O)c1ccc(-c2cnc3[nH]cc(-c4cc5ccccc5n4C(=O)OC(C)(C)C)c3n2)cc1` [Compound I-61, tert-butyl 2-[2-(4-isopropylsulfonylphenyl)-5H-pyrrolo[2,3-b]pyrazin-7-yl]indole-1-carboxylate] the Ki was > 0.05 µM. For `CC(C)S(=O)(=O)c1ccc(-c2cnc3[nH]cc(-c4cccc5[nH]ccc45)c3n2)cc1` [Compound I-12, 7-(1H-indol-4-yl)-2-(4-isopropylsulfonylphenyl)-5H-pyrrolo[2,3-b]pyrazine], the Ki was > 0.05 µM. For `CC(C)S(=O)(=O)c1ccc(-c2cnc3[nH]cc(-c4csc5ccccc45)c3n2)cc1` [Compound I-44, 7-(benzothiophen-3-yl)-2-(4-isopropylsulfonylphenyl)-5H-pyrrolo[2,3-b]pyrazine], the Ki was > 0.05 µM. With `COc1ccc2c(c1)cc(-c1c[nH]c3ncc(-c4ccc(S(=O)(=O)C(C)C)cc4)nc13)n2C(=O)OC(C)(C)C` [Compound I-57, tert-butyl 2-[2-(4-isopropylsulfonylphenyl)-5H-pyrrolo[2,3-b]pyrazin-7-yl]-5-methoxy-indole-1-carboxylate] the Ki was > 0.05 µM. For `COc1ccc(-c2c[nH]c3ncc(-c4ccc(S(=O)(=O)C(C)C)cc4)nc23)cc1` [Compound I-29, 2-(4-isopropylsulfonylphenyl)-7-(4-methoxyphenyl)-5H-pyrrolo[2,3-b]pyrazine], the Ki was > 0.05 µM. With `Cc1noc(C)c1-c1c[nH]c2ncc(-c3ccc(S(=O)(=O)C(C)C)cc3)nc12` [Compound I-25, 4-[2-(4-isopropylsulfonylphenyl)-5H-pyrrolo[2,3-b]pyrazin-7-yl]-3,5-dimethyl-isoxazole] the Ki was > 0.05 µM. In the case of `CC(Oc1cc(-c2c[nH]c3ncc(-c4ccc(S(=O)(=O)C(C)C)cc4)nc23)sc1C(=O)O)c1ccccc1Cl` (stereo not drawn) [Compound I-69, 3-[1-(2-chlorophenyl)ethoxy]-5-[2-(4-isopropylsulfonylphenyl)-5H-pyrrolo[2,3-b]pyrazin-7-yl]thiophene-2-carboxylic acid], the Ki is reported as ≤ 0.01 µM. For `CC(C)S(=O)(=O)c1ccc(-c2cnc3[nH]cc(-c4cncc5ccccc45)c3n2)cc1` [Compound I-42, 4-[2-(4-isopropylsulfonylphenyl)-5H-pyrrolo[2,3-b]pyrazin-7-yl]isoquinoline], the Ki was 0.01 to 0.05 µM. Compound `CC(C)S(=O)(=O)c1ccc(-c2cnc3[nH]cc(-c4ccc(F)nc4)c3n2)cc1` [Compound I-23, 7-(6-fluoro-3-pyridyl)-2-(4-isopropylsulfonylphenyl)-5H-pyrrolo[2,3-b]pyrazine] has a Ki of 0.01 to 0.05 µM. For `Cc1ccsc1-c1c[nH]c2ncc(-c3ccc(S(=O)(=O)C(C)C)cc3)nc12` [Compound I-28, 2-(4-isopropylsulfonylphenyl)-7-(3-methyl-2-thienyl)-5H-pyrrolo[2,3-b]pyrazine], the Ki was > 0.05 µM. With `COc1cc(-c2c[nH]c3ncc(-c4ccc(S(=O)(=O)C(C)C)cc4)nc23)ccn1` [Compound I-33, 2-(4-isopropylsulfonylphenyl)-7-(2-methoxy-4-pyridyl)-5H-pyrrolo[2,3-b]pyrazine] the Ki was ≤ 0.01 µM. For `COCc1ccccc1-c1c[nH]c2ncc(-c3ccc(S(=O)(=O)C(C)C)cc3)nc12` [Compound I-17, 2-(4-isopropylsulfonylphenyl)-7-[2-(methoxymethyl)phenyl]-5H-pyrrolo[2,3-b]pyrazine], the Ki was > 0.05 µM. For `CC(C)S(=O)(=O)c1ccc(-c2cnc3[nH]cc(-c4cc5cc(Br)ccc5s4)c3n2)cc1` [Compound I-54, 7-(5-bromobenzothiophen-2-yl)-2-(4-isopropylsulfonylphenyl)-5H-pyrrolo[2,3-b]pyrazine], the Ki was > 0.05 µM.
